In patent US4978665A, “3(2H)pyridazinone, and antagonistic agent against SRS-A containing it” (Nissan Chemical Industries Ltd., priority 1987, dated 1990) one finds inhibition data, which are given here for 48 molecules.

The structures appear in SMILES notation.

This assay deals with LTD4. The experiment in a line: LTD4 antagonism in guinea-pig trachea (in vitro test). Conditions: Cavia porcellus, 0.5 h, LTD4 2×10^-8 g/ml, isolated guinea-pig trachea; for inhibition at 1 µg/mL: 10^-6 g/ml test compound; for inhibition at 0.1 µg/mL: 10^-7 g/ml test compound, read-out: LTD4 Antagonism (%) (in parenthesis). It counts as cell-based. Here is the method:
SRS-A is a mixture of leukotriene C4 (hereinafter referred to as LTC4), leukotriene D4 (hereinafter referred to as LTD4), leukotriene E4 (hereinafter referred to as LTE4) and the like. Accordingly, antagonistic activities against SRS-A can be evaluated by one of the following two test methods:
LTD4 antagonism in guinea-pig trachea
Antagonism for LTD4 was determined in isolated male guinea-pig (300-400 g) trachea prepared as spiral strip. Tracheal preparations were suspended under 1 g tension in 10 ml organ baths containing 5 μM of indomethacin and they were incubated for 1 hr prior to use. Contractile responses to LTD4 (2×10^-8 g/ml) were obtained after the maximal response to histamine (10^- 4 M). Test compounds dissolved in 100% dimethyl sulfoxide were added to the organ baths (final concentration of 10^-6 g/ml or 10^-7 g/ml) 30 min prior to LTD4 addition, and then contractile responses to LTD4 were compared with those of control which was obtained from a paired trachea in the absence of test compounds. LTD4 -induced contractions were expressed as a percentage of the maximal response to histamine. The antagonism was determined as follows:
Antagonism (%)=(1.0 - % contraction in test/% contraction in control)×100
In parenthesis in Table 2, LTD4 antagonisms by test compounds at a concentration of 10^-7 g/ml are shown.

Regarding `C=C(C)COc1nn(CC)c(=O)c(Br)c1NCc1ccc(OC)c(OCC)c1` [compound 61], the inhibition at 1 µg/mL was determined as 96%.
Still for that read-out and setting: to `CCCCCCOc1cc(CNc2c(OC(C)C)n[nH]c(=O)c2Cl)ccc1OC` [compound 72] belongs 75%; to `COc1ccc(CN(C)c2cn[nH]c(=O)c2Br)cc1OCCc1ccccc1` [compound 10], 66%; to `CCCCOc1cc(CN(C)c2cn[nH]c(=O)c2Cl)ccc1OC` [Compound No. 7], 50%.
With `CCCOc1cc(CNc2c(OCC)n[nH]c(=O)c2Cl)ccc1OC` [compound 66], the inhibition at 1 µg/mL came to 100% and the inhibition at 0.1 µg/mL worked out at 48%.
In the case of `CCCOc1cc(CNc2c(Cl)n[nH]c(=O)c2Cl)ccc1OC` [Compound No. 71, 4,6-dichloro-5-(3-n-propoxy-4-methoxybenzylamino)-3(2H)pyridazinone], the inhibition at 1 µg/mL was 66%.
Same read-out and setting: then `CCCCCCOc1cc(CNc2c([N+](=O)[O-])n[nH]c(=O)c2Br)ccc1OC` [Compound No. 33], with 93%.
On the same count and under the same terms, then `CCOc1cc(CNc2c(OC)n[nH]c(=O)c2Cl)ccc1OC` [compound 80], with 100%.
As for `CCOc1cc(CNc2c(OCc3ccccc3)n[nH]c(=O)c2Cl)ccc1OC` [compound 86], the inhibition at 1 µg/mL was found to be 100% and the inhibition at 0.1 µg/mL was 48%.
`CCCOc1cc(CNc2c([N+](=O)[O-])n[nH]c(=O)c2Br)ccc1OC` [compound 27] registered an inhibition at 1 µg/mL of 72%.
On to `CCOc1cc(CNc2c(OCC)n[nH]c(=O)c2Cl)ccc1OC` [compound 64], for which the inhibition at 1 µg/mL stood at 90%.
The molecule `CCOc1n[nH]c(=O)c(Cl)c1NCc1ccc(OC)c(OC)c1` [compound 84] gave an inhibition at 1 µg/mL of 59%.
With `COc1ccc(CNc2c(OCc3ccccc3)n[nH]c(=O)c2Cl)cc1OC` [compound 85], the inhibition at 1 µg/mL amounted to 85%.
On to `CCOc1cc(CNc2c(OC(C)C)n[nH]c(=O)c2Cl)ccc1OC` [compound 65], for which the inhibition at 1 µg/mL amounted to 96%.
`CCOc1cc(CNc2c(OC(C)c3ccccc3)n[nH]c(=O)c2Cl)ccc1OC` (centres unmarked) [Compound No. 91]: the inhibition at 1 µg/mL worked out at 100% and the inhibition at 0.1 µg/mL amounted to 76%.
The like results for `CC=CCOc1nn(CC)c(=O)c(Br)c1NCc1ccc(OC)c(OCC)c1` [compound 60] were, in that order, 100% and 38%.
Molecule `CCCOc1cc(CNc2c(OCC)nn(CC)c(=O)c2Cl)ccc1OC` [Compound No. 50, 2-ethyl-4-chloro-5-(3-n-propoxy-4-methoxybenzylamino)-6-ethoxy-3(2H)pyridazinone] showed an inhibition at 1 µg/mL of 95%.
The molecule `C=CCOc1nn(CC)c(=O)c(Cl)c1NCc1ccc(OC)c(OCC)c1` [compound 55] yielded an inhibition at 1 µg/mL of 81%.
`COc1ccc(CNc2c([N+](=O)[O-])n[nH]c(=O)c2Cl)cc1OCCc1ccccc1` [compound 36] yielded an inhibition at 1 µg/mL of 70%.
`COc1ccc(CNc2c(OC(C)C)n[nH]c(=O)c2Cl)cc1OC` [compound 63] came in with an inhibition at 1 µg/mL of 92%.
The molecule `CCCOc1cc(CNc2c([N+](=O)[O-])n[nH]c(=O)c2Cl)ccc1OC` [Compound No. 22, 4-chloro-5-(3-n-propoxy-4-methoxybenzylamino)-6-nitro-3(2H)pyridazinone] had an inhibition at 1 µg/mL of 59%.
Take `CCCOc1cc(CNc2c(OCC)nn(C(C)C)c(=O)c2Cl)ccc1OC` [compound 77]: the inhibition at 1 µg/mL was found to be 50%.
Turning to `C#CCOc1nn(CC)c(=O)c(Br)c1NCc1ccc(OC)c(OCC)c1` [compound 58], the inhibition at 1 µg/mL amounted to 100% and the inhibition at 0.1 µg/mL came to 40%.
The molecule `CCCCOc1cc(CNc2c(N)n[nH]c(=O)c2Br)ccc1OC` [Compound No. 30, 4-bromo-5-(3-n-butoxy-4-methoxybenzylamino)-6-amino-3(2H)pyridazinone] gave an inhibition at 1 µg/mL of 38%.
`CCCSc1n[nH]c(=O)c(Cl)c1NCc1ccc(OC)c(OC)c1` [Compound No. 92, 4-chloro-5-(3,4-dimethoxybenzylamino)-6-n-propylmercapto-3(2H)pyridazinone] displayed an inhibition at 1 µg/mL of 63%.
As to `CCC(C)Oc1n[nH]c(=O)c(Cl)c1NCc1ccc(OC)c(OC)c1` (centres unmarked) [Compound No. 89], the inhibition at 1 µg/mL was 96% and the inhibition at 0.1 µg/mL is 55%.
In turn, `C=CCOc1nn(C(C)C)c(=O)c(Cl)c1NCc1ccc(OC)c(OCCC)c1` [compound 79] had an inhibition at 1 µg/mL of 79%.
`C=CCOc1nn(CC)c(=O)c(Cl)c1NCc1ccc(OC)c(OCCC)c1` [compound 54] showed an inhibition at 1 µg/mL of 95%.
For the molecule `CCCc1c(OCC(O)COc2ccc3c(=O)cc(C(=O)O)oc3c2CCC)ccc(C(C)=O)c1O` (centres unmarked) [FPL-55712, reference compound], the inhibition at 1 µg/mL was determined as 94% and the inhibition at 0.1 µg/mL amounted to 48%.
`CCCOc1cc(CNc2c(OCc3ccccc3)nn(CC)c(=O)c2Cl)ccc1OC` [compound 75] had an inhibition at 1 µg/mL of 77%.
The molecule `CCCOc1cc(CNc2c(N)n[nH]c(=O)c2Cl)ccc1OC` [Compound No. 23, 4-chloro-5-(3-n-propoxy-4-methoxybenzylamino)-6-amino-3(2H)pyridazinone] showed an inhibition at 1 µg/mL of 51%.
Same read-out and setting: to `CCOc1cc(CN(C)c2c(OC)nn(CC)c(=O)c2Br)ccc1OC` [compound 73] belongs 100%.
As to `COc1ccc(CNc2c(OC(C)c3ccccc3)n[nH]c(=O)c2Cl)cc1OC` (centres unmarked) [compound 90], the inhibition at 1 µg/mL worked out at 96% and the inhibition at 0.1 µg/mL is 70%.
In turn, `CCOc1cc(CNc2c(OC(C)C)nn(CC)c(=O)c2Cl)ccc1OC` [Compound No. 51] gave an inhibition at 1 µg/mL of 94%.
For `CCCOc1cc(CNc2c(OCCC)nn(CC)c(=O)c2Cl)ccc1OC` [compound 57], the inhibition at 1 µg/mL came to 100% and the inhibition at 0.1 µg/mL was 37%.
`CCCOc1cc(CN(C)c2cn[nH]c(=O)c2Cl)ccc1OC` [Compound No. 5] registered an inhibition at 1 µg/mL of 54%.
Still for that read-out and setting: then `CCOc1cc(CNc2c(OC(C)C)nn(CC)c(=O)c2Br)ccc1OC` [Compound No. 52], with 100%; and `CCOc1cc(CNc2c(Cl)n[nH]c(=O)c2Cl)ccc1OC` [compound 70], with 66%; and `CCCOc1cc(CNc2c(OC(C)C)nn(C(C)C)c(=O)c2Cl)ccc1OC` [compound 78], with 56%.
Take `CCOc1cc(CNc2c(OC)nn(CC)c(=O)c2Br)ccc1OC` [compound 47]: the inhibition at 1 µg/mL is 79%.
The same measure, in the same setting: to `COc1ccc(CNc2c(SCC(C)C)n[nH]c(=O)c2Cl)cc1OC` [compound 94] belongs 68%.
For the molecule `C=CCOc1nn(CC)c(=O)c(Br)c1NCc1ccc(OC)c(OCC)c1` [Compound No. 56], the inhibition at 1 µg/mL came to 100% and the inhibition at 0.1 µg/mL was 51%.
The like results for `CCCOc1cc(CNc2c(OC(C)C)n[nH]c(=O)c2Cl)ccc1OC` [Compound No. 67] were, in that order, 100% and 82%.
`CCCOc1cc(CNc2c(OC(C)C)nn(CC)c(=O)c2Cl)ccc1OC` [Compound No. 53] had an inhibition at 1 µg/mL of 100%.
`CCOc1cc(CNc2c(OC)nn(CC)c(=O)c2Cl)ccc1OC` [compound 45] gave an inhibition at 1 µg/mL of 50%.
`CCOc1cc(CN(C)c2c(OCC)nn(CC)c(=O)c2Br)ccc1OC` [compound 74] showed an inhibition at 1 µg/mL of 100%.
`CCOc1cc(CNc2c(OCC)nn(CC)c(=O)c2Cl)ccc1OC` [compound 46] came in with an inhibition at 1 µg/mL of 73%.
For the molecule `CCOc1cc(CNc2c(OCC)nn(CC)c(=O)c2Br)ccc1OC` [Compound No. 48], the inhibition at 1 µg/mL is 99%.
